In the NIST ThermoML archive (doi:10.1021/je060271a):

Conditions: 343.15 K, Liquid, Vibrating tube method

CCCCCCC(=O)OCC(COC(=O)CCCCCC)(COC(=O)CCCCCC)COC(=O)CCCCCC [pentaerythritol tetraheptanoate]
Conditions	mass density [kg/m3]
5115 kPa	944.4
5119.1 kPa	944.5
5124.1 kPa	944.5
5128.3 kPa	944.5
5132.4 kPa	944.4
5136.3 kPa	944.4
5141.1 kPa	944.4
5145.3 kPa	944.4
5149.6 kPa	944.5
5153.6 kPa	944.5
5158.6 kPa	944.5
5162.9 kPa	944.5
5167.1 kPa	944.5
5172.1 kPa	944.5
5176 kPa	944.4
5180 kPa	944.5
5184.4 kPa	944.4
5189.9 kPa	944.6
5193.9 kPa	944.4
5198 kPa	944.4
5202.4 kPa	944.7
5206.5 kPa	944.5
5211.7 kPa	944.6
5216 kPa	944.6
5220.2 kPa	944.5
5225 kPa	944.6
5229.2 kPa	944.5
5233.5 kPa	944.5
5237.6 kPa	944.5
5243.2 kPa	944.5
5247.3 kPa	944.7
5251.8 kPa	944.5
5256 kPa	944.7
5260.8 kPa	944.6
5265 kPa	944.6
5269.7 kPa	944.6
5273.8 kPa	944.5
5277.8 kPa	944.7
5281.4 kPa	944.6
5285 kPa	944.6
5291.6 kPa	944.7
5300.3 kPa	944.5
5308.9 kPa	944.7
5319.5 kPa	944.7
5328.6 kPa	944.7
5337.3 kPa	944.6
5348.2 kPa	944.6
5357.2 kPa	944.7
5366.4 kPa	944.6
5375.7 kPa	944.6
5386.4 kPa	944.6
5395.4 kPa	944.7
5406.3 kPa	944.9
5415.5 kPa	944.8
5425 kPa	944.8
5434.7 kPa	944.7
5444 kPa	944.7
5453.7 kPa	944.7
5464.8 kPa	944.8
5473.8 kPa	944.7
5485 kPa	945
5494.5 kPa	944.7
5504.2 kPa	944.8
5513.7 kPa	944.8
5525.5 kPa	944.8
5535 kPa	944.7
5544.7 kPa	944.8
5554.7 kPa	944.8
5568 kPa	944.8
5576.2 kPa	944.7
5587.6 kPa	944.8
5597.4 kPa	944.8
5607.3 kPa	944.8
5619.2 kPa	944.8
5629.1 kPa	944.8
5639.1 kPa	944.9
5650.9 kPa	944.9
5660.8 kPa	944.8
5671.1 kPa	944.8
5681.5 kPa	944.7
5694 kPa	944.9
5705.1 kPa	945
5715.3 kPa	944.9
5725.9 kPa	945
5737.8 kPa	944.9
5748.4 kPa	944.8
5758.7 kPa	945
5771 kPa	944.9
5781.7 kPa	944.9
5791.9 kPa	944.9
5802.8 kPa	944.9
5815.5 kPa	945.1
5826.5 kPa	945
5837.6 kPa	945.1
5848.7 kPa	945
5862 kPa	945
5872.5 kPa	944.9
5883.3 kPa	945
5894.5 kPa	945.1
5907.6 kPa	945.1
5918.9 kPa	945
5930.1 kPa	945.1
5941.2 kPa	945
5954.7 kPa	945.1
5965.7 kPa	945.3
5977 kPa	945
5990.6 kPa	945.1
6002 kPa	945
6013.3 kPa	945.2
6026.9 kPa	945.1
6038.5 kPa	945.2
6050.1 kPa	945.1
